Legend:
LNCaP cells [1] = assay: PDT using ALA-induced PpIX, cell survival (MTT conversion assay); assay type: cell-based, human; details: for light dose to reduce cell survival by 50% (MTT): 514 nm light; for survival after PDT: versus no pretreatment
Procedure: ALA-induced PpIX for PDT of LNCaP cells with (circles) or without (triangles) pretreatment for 72 hours with 10^−7 M R1881. The cells were incubated with ALA concentrations from 0.1 to 1.0 mM for four hours prior to exposure to 10 J/cm^2 of 514 nm light.
PDT using ALA-induced PpIX in LNCaP cells with (circles) or without (triangles) pretreatment for 72 hours with 10^−7 M R1881. The cells were incubated with 0.3 mM ALA for four hours prior to exposure to 3-20 J/cm^2 of 514 nm light.
(§1) LNCaP (human prostate cancer) cells were treated with methotrexate (1 μg/ml) for 72 hours. The cells were then incubated with 0.3 mM ALA for 4 hours. After ALA treatment, cells were either used for quantification of PpIX or exposed to 514 nm light. […] This enhancement of PDT by chemotherapy can also be seen when long-term survival was assessed by colony formation assay (FIG. 6B). Here, the 50% levels are reached at 25 J/cm2, compared to 2 J/cm2. […] Chemotherapeutic effect was also confirmed using cyclophosphamide.

human skin = assay: Fluorescence micrograph of ALA-induced PpIX in human skin; details: human skin incubated in ALA for 4 hours
[2] = tested on: LNCaP (human prostate cancer) cells; assay: PDT long-term survival by colony formation assay; assay type: cell-based; details: 514 nm light
Procedure: as §1

LNCaP tumors = assay: PpIX formation in LNCaP tumors in vivo (confocal imaging of frozen sections); set-up: species or system SCID mice; details: 400 pg/kg R1881, after 4 days 250 mg/kg ALA i.p., tumors removed at 4 hours; 633 nm excitation
Procedure: SCID mice bearing LNCaP tumors were pretreated with a high dose of 400 pg/kg R1881 and after 4 days received 250 mg/kg ALA i.p. At 4 hours, the mice were sacrificed and the tumors removed. Frozen sections of the tumors were imaged on the confocal laser scanning microscope. Using 633 nm excitation, the sections of tumors from an untreated mouse (FIG. 5A) and an R1881-pretreated mouse (FIG. 5B) were imaged at the same instrument parameters.

LNCaP cells [3] = assay: Confocal laser scanning microscopy of PPIX fluorescence in living cells; assay type: cell-based, human; details: 10^−7 M R1881 72 hours, then 0.3 mM ALA 4 hours; excitation 488 nm
Procedure: LNCaP cells were pretreated with 10^−7 M R1881 for 72 hours or with vehicle, and then incubated with 0.3 mM ALA. At 4 hours the living cells were imaged using the confocal laser scanning microscope. Excitation was at 488 nm and both green (auto fluorescence) and red (PPIX) fluorescence was recorded and combined.

[4] = tested on: LNCaP human prostate cancer cells; assay: ALA-induced PpIX formation by LNCaP cells; assay type: cell-based
Procedure: ALA-induced PpIX formation by LNCaP human prostate cancer cells. The cells were incubated for four hours with 0.3 mM ALA after 72 hours of pretreatment with the synthetic androgen R1881 at concentrations between 10^−10 to 10^−6.
as §1

[5] = cell line and regimen not stated
Procedure: as §1

[6] = PDT alone: 0.3 mM ALA 4 hours, no methotrexate
[7] = combined regimen: methotrexate 1 μg/ml 72 hours, 0.3 mM ALA 4 hours

## NCC(=O)CCC(=O)O [ALA]
LNCaP cells [1]; [6]
  light dose to reduce cell survival by 50% (MTT): 20 J/cm2
Human skin
  ALA-induced PpIX fluorescence signal across epidermal layers: increase of fluorescence signal from bottom to top epidermal layers
[2]; [6]
  light dose for 50% level (colony formation): 25 J/cm2

## C[C@]1(O)CC[C@H]2[C@@H]3CCC4=CC(=O)CCC4=C3C=C[C@@]21C [R1881]
LNCaP cells [1]; 72 hours 10^−7 M R1881, 0.3 mM ALA four hours, 3-20 J/cm^2 of 514 nm light
  survival after PDT: Reduced survival
LNCaP cells [1]; 72 hours 10^−7 M R1881, ALA 0.1 to 1.0 mM four hours, 10 J/cm^2 of 514 nm light
  survival after PDT: Reduced survival
LNCaP tumors
  PpIX formation in tumors: increased PpIX formation
LNCaP cells [3]
  PPIX fluorescence in cells: strong PPIX fluorescence in almost all cells
[4]; 72 hours pretreatment with R1881 10^−10 to 10^−6, then 0.3 mM ALA four hours
  ALA-induced PpIX formation (% of cells without androgen treatment): significant increase

## O=P1(N(CCCl)CCCl)NCCCO1 (stereo not drawn) [cyclophosphamide]
[5]
  chemotherapeutic effect (enhancement of PDT by pretreatment): confirmed

## CN(Cc1cnc2nc(N)nc(N)c2n1)c1ccc(C(=O)N[C@@H](CCC(=O)O)C(=O)O)cc1 [methotrexate]
LNCaP cells [1]; [7]
  light dose to reduce cell survival by 50% (MTT): 2 J/cm2
[2]; [7]
  light dose for 50% level (colony formation): 2 J/cm2
[4]; methotrexate 1 μg/ml 72 hours, then 0.3 mM ALA 4 hours, mean+/−standard deviation
  increase in PpIX levels: 4.1±1.1 fold

— US20080312150A1 (priority 1999, published 2008)
